Assay results published in paper PMC4623676, “Methylation mediated by an anthocyanin, O-methyltransferase, is involved in purple flower coloration in Paeonia” (Journal of Experimental Botany, 2015).

Legend:
PsAOMT = test system: T1, PsAOMT; experiment: HPLC of methylated product; type: biochemical, Paeonia suffruticosa; conditions: 200 μM SAM, 1.0 mM MgCl2, 14 mM β-mercaptoethanol, 100 mM Tris/HCl pH 7.5, 35 °C; MBP fusion; read-out: PsAOMT / K m
T1 construct: gene AOMT; dimer in solution; Leu-87; differs from PtAOMT at positions 13 (E), 85 (A), 87 (L), 205 (R)
Source text: HPLC of methylated product on PsAOMT

PtAOMT = test system: T2, PtAOMT; experiment: HPLC of methylated product; type: biochemical, Paeonia tenuifolia; conditions: 200 μM SAM, 1.0 mM MgCl2, 14 mM β-mercaptoethanol, 100 mM Tris/HCl pH 7.5, 35 °C; MBP fusion
T2 construct: gene AOMT; dimer in solution; Arg-87; Gly-13, Thr-85, Thr-205
Source text: HPLC of methylated product on PtAOMT | K m of PtAOMT-R87L for Cy3G was slightly lower than its K m for Cy3G5G

Row | Compound | Km (PsAOMT) [µM] | Km (PtAOMT) [µM]
1 | O=c1cc(-c2ccc(O)c(O)c2)oc2cc(O[C@@H]3O[C@H](CO)[C@@H](O)[C@H](O)[C@H]3O)cc(O)c12 [Lu7G, Luteolin 7-O-glucoside] | 146 | 
2 | C[C@@H]1O[C@@H](OC[C@H]2O[C@@H](Oc3c(-c4ccc(O)c(O)c4)oc4cc(O)cc(O)c4c3=O)[C@H](O)[C@@H](O)[C@@H]2O)[C@H](O)[C@H](O)[C@H]1O [Qu3R, Quercetin 3-O-rutinoside] | 12.3 | 
3 | O=c1c(O)c(-c2ccc(O)c(O)c2)oc2cc(O)cc(O)c12 [Quercetin] | 4.33 | 

The next lines start with the values.

Row | Km (PsAOMT) [µM] | Km (PtAOMT) [µM] | Compound
4 | 1.06 | 8.51 ± 1.39 | OC[C@H]1O[C@@H](Oc2cc3c(O[C@@H]4O[C@H](CO)[C@@H](O)[C@H](O)[C@H]4O)cc(O)cc3[o+]c2-c2ccc(O)c(O)c2)[C@H](O)[C@@H](O)[C@@H]1O [Cy3G5G, Cyanidin 3,5-di-O-glucoside]
5 | 4.11 |  | OC[C@H]1O[C@@H](Oc2cc3c(O)cc(O)cc3[o+]c2-c2cc(O)c(O)c(O)c2)[C@H](O)[C@@H](O)[C@@H]1O [Dp3G, Delphinidin 3-O-glucoside]
6 | 1.76 | 3.53 ± 0.31 | OC[C@H]1O[C@@H](Oc2cc3c(O)cc(O)cc3[o+]c2-c2ccc(O)c(O)c2)[C@H](O)[C@@H](O)[C@@H]1O [Cy3G, Cyanidin 3-O-glucoside]
